Results reported in patent US20260231954A1, “PESTICIDAL ENZYMES FOR USE ON NEMATODES, INSECTS, AND MOLLUSKS” (priority 2023, published 2026).

Experiments:
[1] = test system: Btk resistant Diamondback moth; experiment: Diet-surface overlay (DSO) bioassay on Btk resistant Diamondback moth; assay type: in vivo, Plutella xylostella; settings: number of individuals, n = 32, 7 days
Experimental: (§1) Diet-surface overlay bioassays are conducted with artificial diet mixes without antibiotics in 1.5 cm^2 cell bioassay trays(s). Artificial diets are commercially available from Southland Products Inc. Diets were prepared by dispersing 0.5 mL of molten diet to each 1.5 cm^2 cell. After solidification, 0.1 mL enzyme treatments were dispersed on top of diet in each cell and the tray was gently rocked in an orbital shaker to spread the liquid uniformly over the diet surface. Trays were placed under clean airflow until the surface of each cell was uniformly dried. One or two 16-cell sections were used per treatment (the number in larvae treated was 16 or 32).
(§2) One healthy first instar larva was placed into each treatment cell, each 16-cell section was covered with a re-sealable lid and incubated at 27° C. and light-dark period of 16:8 hrs. After 7 days, and according to the species, the number of individuals in the following developmental categories was recorded.
(§3) Diamondback moth (Plutella xylostella): Dead Larva (lack of movement), Larva Stage I (≤50% relative size), Larva Stage II (100% relative size, full size), Early Pupa (light green color), Late Pupa (light-dark brown color), and Adult.
(§4) Negative/untreated controls were treated with filtered water and positive controls were treated with lethal doses of Bacillus thuringiensis subsp. Kurstaki (Btk) spores at 1000 ppm.
However, both neutral proteases reduced the number of individuals reaching adult stage.
The effect of lipase (10× enzyme rate) and free lipases were tested on a Diamondback Moth Btk resistant strain. Free Lipases from Burkholderia cepacia (Bc) and Pseudomonas fluorescens (Pf) were tested along with Lipase (SEQ ID NO: 76) and the results are shown below in Table 45.

[2] = test system: soybean cyst nematode (SCN); experiment: SCN reproduction after application of enzyme or recombinant strain to soil; assay type: in vivo, Heterodera glycines; settings: Table 33; for % Comparison to Control: first figure, water control = 100%
Experimental: To determine the efficacy of nematicidal enzymes applied to soil, a controlled environment trial was performed with 7-day old soybean plants (variety 2830E3) grown in pots. Enzymes were produced as described in Example 2. Prior to inoculation, 0.5 mL of neutral protease (SEQ ID NO: 127), esterase B (SEQ ID NO: 89), or chitinase 19F (SEQ ID NO: 182) free enzyme solution was applied to the soil around the base of each plant, or 0.5 mL of water was applied for the control (30 plants per treatment). Then, hatched SCN juveniles were applied to the soil around each plant as described in Example 2, and three weeks later, cysts per gram of root tissue was determined as described in Example 2. The data was analyzed as in Example 2 and appears in Tables 33 and 34.
To determine the efficacy of recombinant strains applied to soil, a controlled environment trial was performed as described in Example 18 above (Reduction of soybean cyst nematode reproduction by enzymes applied to soil), with the exception that a recombinant strain expressing neutral protease (SEQ ID NO: 127) was applied instead of a free enzyme solution. The recombinant strain was produced as in Example 3, and the treatment applied to soil as a whole cell broth.

[3] = test system: soybean cyst nematode (SCN, Heterodera glycines); experiment: Soybean cyst nematode reproduction on soybean after seed treatment, controlled environment (cysts per gram of root tissue or per plant); assay type: in vivo
Meloidogyne incognita = experiment: Root gall index of soybeans inoculated with Meloidogyne incognita after seed treatment (greenhouse); assay type: in vivo; settings: for % Comparison to Control: first figure, base seed treatment control = 100%
Experimental: Nematicidal neutral protease (SEQ ID NO: 127) was produced by fermentation in Bacillus subtilis. The enzyme was cloned into Bacillus expression plasmid p1797 with isopropyl β-d-1-thiogalactopyranoside (IPTG)-inducible expression. The plasmid was transformed into B. subtilis, and this strain was grown in rich media until an optical density (OD) of 0.2-0.5 was reached. Then, enzyme expression was induced by addition of 1 mM IPTG. Following the culture harvest, cells were removed by filtration through a […] filter. Culture filtrate containing secreted protease was then used for seed treatment. Bacillus subtilis fermentation filtrate expressing neutral protease was mixed directly into a seed treatment slurry containing colorant and Peridiam® 1006 […] at a rate of 2 fl oz per unit of seed and coated onto Bossier variety soybean seed.
To investigate the effects of neutral protease on galling due to root knot nematode infestation, treated seeds were planted in soil in cone-tainers in a greenhouse. Seven days after planting, each cone-tainer was inoculated with 1250 eggs from the Dick Meloidogyne incognita population. Eight weeks post-inoculation, roots were excavated and washed. Root galling was visually rated on a gall index (GI) scale of 1-5 (1=<10% GI; 2=11-20%, 3=21-30%, 4=31-40%, 5=>40% GI). Fifteen plants were evaluated per treatment and their average root gall ratings were recorded.

[4] = test system: Diamondback moth (Plutella xylostella); experiment: Diet-surface overlay (DSO) bioassay on Diamondback moth; assay type: in vivo; settings: number of individuals, n = 16
Experimental: as §1, §2, §3, §4

Substance: Neutral protease (SEQ ID NO: 127): Bacillus sp. B16 neutral protease produced by fermentation in Bacillus subtilis; culture filtrate containing the secreted enzyme
- Dead Larva ([1]; Table 42, proteases at 10x rate): 4
- Adult ([1]; Table 42): 0
- Early Pupa ([1]; Table 42): 6
- Larva Stage I ([1]; Table 42): 0
- Larva Stage II ([1]; Table 42): 0
- Late Pupa ([1]; Table 42): 22
- % Comparison to Control (figure in parentheses) ([2]; change vs water control): −32%
- % Comparison to Control [2]: reduced SCN reproduction
- % Comparison to Control ([2]; listed as Neutral protease free enzyme (SEQ ID NO: 127)): 68%
- Average cysts per g of root tissue ([2]; free enzyme 0.5 mL/plant to soil, soybean 2830E3, 3 weeks): 35.7 cysts per g of root tissue
- Average cysts per g of root tissue ([3]; Table 11, free enzyme seed treatment 2 fl. oz. per unit of seed (ILEVO 0.15 mg active ingredient per seed), soybean P18A98X, 3 weeks after inoculation): 20.1 cysts per g of root tissue
- Average cysts per g of root tissue ([3]; Table 14, seed treated with whole cell broth, soybean P18A98X): 40.3 cysts per g of root tissue
- % Comparison to Control (figure in parentheses) ([3]; Table 38, change vs base control, liquid 2 fl oz/unit, ILEVO): −42%
- Average cysts per g of root tissue ([3]; Table 38, liquid formulation 2 fl oz/unit, ILEVO positive control, soybean 2830E3): 208.8 cysts per g of root tissue
- % Comparison to Control (figure in parentheses) (Meloidogyne incognita; Table 26, change vs base control): −26%
- % Comparison to Control (Meloidogyne incognita; Table 26): reduction of average visual gall rating
- % Comparison to Control (Meloidogyne incognita; Table 26, listed as Neutral protease seed treatment (SEQ ID NO: 127)): 74%
- Average root gall rating (Meloidogyne incognita; gall index scale of 1-5, seed treatment 2 fl oz per unit of seed, Bossier soybean, 8 weeks post-inoculation, 15 plants): 3.5
- Dead Larva ([4]; Table 41, proteases, after 7 days, rate in U/mL diet column): 2
- Adult ([4]; Table 41, 7 days): 0
- Early Pupa ([4]; Table 41, 7 days): 8
- Larva Stage I ([4]; Table 41, 7 days): 0
- Larva Stage II ([4]; Table 41, 7 days): 0
- Late Pupa ([4]; Table 41, 7 days): 6
